PMC7108868, “Agonist-mediated switching of ion selectivity in TPC2 differentially promotes lysosomal function” (eLife, 2020)
pEC50: −log10 of the molar value. Like-named read-outs stand apart in the source and are kept apart here.

Columns and labels:
Format in all cases: cell-based
TPC2 [1] = target: T1, TPC2 (Homo sapiens, UniProt Q8NHX9, L11A/L12A); assay: Fura-2 Ca2+ imaging, block of TPC2-A1-N response at […]
T1 construct: gene TPCN2; hTPC2^L11A/L12A (plasma membrane targeted)

TPC2 [2] = target: T2, TPC2 (Homo sapiens, UniProt Q8NHX9); assay: endo-lysosomal patch-clamp (also FLIPR Ca2+ assay, EC50 […])
T2 construct: gene TPCN2; hTPC2, C-terminal YFP
T2 sequence (Q8NHX9 whole entry): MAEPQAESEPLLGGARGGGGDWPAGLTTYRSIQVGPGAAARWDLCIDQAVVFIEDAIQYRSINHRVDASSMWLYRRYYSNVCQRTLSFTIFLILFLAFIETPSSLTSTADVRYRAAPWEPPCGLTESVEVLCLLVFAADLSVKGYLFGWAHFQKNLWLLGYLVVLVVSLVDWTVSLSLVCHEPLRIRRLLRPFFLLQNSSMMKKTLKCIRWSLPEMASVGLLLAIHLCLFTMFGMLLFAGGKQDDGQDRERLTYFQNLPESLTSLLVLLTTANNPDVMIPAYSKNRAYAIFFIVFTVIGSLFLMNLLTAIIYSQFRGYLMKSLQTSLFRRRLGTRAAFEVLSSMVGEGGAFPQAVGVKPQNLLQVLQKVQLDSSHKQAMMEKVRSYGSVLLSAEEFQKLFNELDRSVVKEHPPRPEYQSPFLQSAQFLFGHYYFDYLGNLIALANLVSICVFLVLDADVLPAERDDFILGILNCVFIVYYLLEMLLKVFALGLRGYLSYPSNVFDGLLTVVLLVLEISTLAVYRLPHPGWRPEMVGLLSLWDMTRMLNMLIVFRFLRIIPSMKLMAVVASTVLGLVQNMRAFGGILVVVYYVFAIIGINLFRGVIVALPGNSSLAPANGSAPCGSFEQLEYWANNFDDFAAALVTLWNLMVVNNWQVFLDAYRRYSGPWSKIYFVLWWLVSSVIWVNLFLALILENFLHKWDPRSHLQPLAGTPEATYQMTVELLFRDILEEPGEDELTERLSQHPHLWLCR

TPC2 [3] = target: T3, TPC2 (Mus musculus, UniProt Q8BWC0); assay: GCaMP Ca2+ imaging and endo-lysosomal patch-clamp, […]; parameters: gene Tpcn2; MmTPC2-GCaMP6s; mTPC2
T3 sequence (Q8BWC0 whole entry): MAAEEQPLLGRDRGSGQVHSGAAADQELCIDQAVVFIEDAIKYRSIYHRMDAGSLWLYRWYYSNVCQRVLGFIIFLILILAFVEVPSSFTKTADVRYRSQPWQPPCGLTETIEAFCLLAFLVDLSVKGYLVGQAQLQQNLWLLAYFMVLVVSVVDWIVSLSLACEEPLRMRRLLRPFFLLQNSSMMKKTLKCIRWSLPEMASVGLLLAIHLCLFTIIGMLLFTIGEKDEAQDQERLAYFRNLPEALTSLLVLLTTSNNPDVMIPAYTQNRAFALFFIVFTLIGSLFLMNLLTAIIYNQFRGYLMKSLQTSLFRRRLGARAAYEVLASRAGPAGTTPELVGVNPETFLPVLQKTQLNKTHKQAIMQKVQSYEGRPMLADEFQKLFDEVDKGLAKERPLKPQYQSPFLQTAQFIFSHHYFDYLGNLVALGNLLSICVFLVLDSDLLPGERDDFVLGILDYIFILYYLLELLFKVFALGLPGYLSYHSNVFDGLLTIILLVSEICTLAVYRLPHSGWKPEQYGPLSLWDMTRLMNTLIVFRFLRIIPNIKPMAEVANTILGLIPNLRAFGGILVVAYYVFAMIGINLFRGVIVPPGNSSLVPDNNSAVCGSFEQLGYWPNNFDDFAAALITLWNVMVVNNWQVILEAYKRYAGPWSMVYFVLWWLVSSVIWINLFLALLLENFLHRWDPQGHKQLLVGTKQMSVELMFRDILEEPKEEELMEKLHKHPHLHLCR

TPC2 [4] = target: T3, TPC2; assay: endo-lysosomal patch-clamp, […], with TPC2 KO control; parameters: gene Tpcn2; mTPC2; endogenous TPC2 in alveolar macrophages
TPC2 [5] = target: T2, TPC2; assay: endo-lysosomal patch-clamp (also FLIPR Ca2+ assay, EC50 […]); remark: listed apart in the source

T1 sequence (Q8NHX9 whole entry L11A/L12A): as the sequence (Q8NHX9 whole entry) above, with L11A, L12A counted along it

With OCCN1CCN(CCCN2c3ccccc3Sc3ccc(C(F)(F)F)cc32)CC1 [Flu, fluphenazine] the “Fura-2 Ca2+ imaging, block of TPC2-A1-N response at 10 μM” value (shortened to “Fura-2 Ca2+ imaging, block”) (TPC2 [1]) was “responses to TPC2-A1-N were selectively blocked by the recently identified TPC2 blockers tetrandrine (Tet), raloxifene (Ral), and fluphenazine (Flu)”.

With O=C(c1ccc(OCCN2CCCCC2)cc1)c1c(-c2ccc(O)cc2)sc2cc(O)ccc12 [Ral, raloxifene] the “Fura-2 Ca2+ imaging, block” value (TPC2 [1]) was “responses to TPC2-A1-N were selectively blocked by the recently identified TPC2 blockers tetrandrine (Tet), raloxifene (Ral), and fluphenazine (Flu)”.

For N#CC(C(=O)Nc1ccc(C(F)(F)F)cc1)=C(O)c1cc(Cl)cc(Cl)c1 [TPC2-A1-N, 2-Cyano-3-(3,5-dichlorophenyl)−3-hydroxy-N-(4-(trifluoromethyl)phenyl)acrylamide], the pEC50 (TPC2 [2]) was 6.22 and the “GCaMP Ca2+ imaging and endo-lysosomal patch-clamp, 10 μM” value (TPC2 [3]) was “mouse TPC2 fused to GCaMP6 (MmTPC2^GCaMP) confirmed that TPC2-A1-N evoked larger responses than TPC2-A1-P”.

Cc1c(C(=O)O)cc(-c2cc(Br)ccc2OC(F)(F)F)n1CC1CCCCC1 [TPC2-A1-P, 5-(5-Bromo-2-(trifluoromethoxy)phenyl)−1-(cyclohexylmethyl)−2-methyl-1H-pyrrole-3-carboxylic acid] was tested, and the “endo-lysosomal patch-clamp, 10 μM, with TPC2 KO control” value (TPC2 [4]) was “both TPC2-A1-N and TPC2-A1-P evoked measurable endogenous TPC2-like currents in macrophages from wild-type animals” and the pEC50 (TPC2 [5]) was 6.22.

In the case of COc1ccc2cc1Oc1ccc(cc1)C[C@H]1c3cc(c(OC)cc3CCN1C)Oc1c(OC)c(OC)cc3c1[C@H](C2)N(C)CC3 [Tet, tetrandrine], the “Fura-2 Ca2+ imaging, block” value (TPC2 [1]) was “responses to TPC2-A1-N were selectively blocked by the recently identified TPC2 blockers tetrandrine (Tet), raloxifene (Ral), and fluphenazine (Flu)”.
